Measured values from patent US4748232A, “Peptide production and use thereof” (Suntory Limited, priority 1983, dated 1988).

Assays:
Solubility in solvents = assay type: physicochemical
[1] = Immunogenicity and toxicity on administration; assay type: in vivo
Male rats = test: Diuretic and natriuretic action in anesthetized rats (urine collected via bladder cannula); assay type: in vivo, rat; conditions: 1.21 μ mole, group V
Experimental: To keep the respiratory tract open, a tracheal cannula (PE-240 Clay-Adams) was inserted into the trachea. An arterial cannula (PE-50) was inserted into a femoral artery for measurement of the blood pressure, and a venous cannula was inserted into a femoral vein for the administration of Ringer's solution. 1.2 ml of Ringer's solution was injected for ten minutes, and subsequently, was constantly infused at a flow rate of 1.2 ml/hour.
A bladder cannula made of silastic tube with an inner diameter of 0.02 inches and an outer diameter of 0.037 inches was inserted into the bladder, and via the cannula, a urine sample was collected into a test tube. The collection of urine was carried out for 30 minutes before administration of the test compound, and every five minutes after the administration.
The control group (group I) was administered 50 μl of physiological saline containing only bacitracin.
Groups I to IV each consisted of three animals, and group V consisted of four animals.

Row | Solubility in solvents (Solubility in solvents; ethyl acetate, butyl acetate, ethyl ether, hexane, petroleum ether, benzene, and chloroform) | Solubility in solvents (Solubility in solvents; methanol, and acetic acid) | Solubility in solvents (Solubility in solvents; water) | SMILES | toxicity ([1]; gradually hydrolized in a body providing the L-amino acids) | anaphylaxis shock ([1]; repeated administration) | production of antibodies ([1]; repeated administration) | Urine volume A (Male rats; A: sample collected 5 minutes after administration) [µL/min] | Urine volume B (Male rats; B: sample collected 30 minutes before administration) [µL/min]
1 | insoluble | partially | soluble | CC[C@H](C)[C@@H]1NC(=O)[C@H](CCCNC(=N)N)NC(=O)[C@H](CC(=O)O)NC(=O)[C@H](CCSC)NC(=O)[C@H](CCCNC(=N)N)NC(=O)CNC(=O)CNC(=O)[C@H](Cc2ccccc2)NC(=O)[C@@H](NC(=O)[C@H](CO)NC(=O)[C@H](CO)NC(=O)[C@H](CCCNC(=N)N)NC(=O)[C@H](CCCNC(=N)N)NC(=O)[C@H](CC(C)C)NC(=O)[C@@H](N)CO)CSSC[C@@H](C(=O)N[C@@H](CC(N)=O)C(=O)N[C@@H](CO)C(=O)N[C@@H](Cc2ccccc2)C(=O)N[C@@H](CCCNC(=N)N)C(=O)N[C@@H](Cc2ccc(O)cc2)C(=O)O)NC(=O)CNC(=O)[C@H](CC(C)C)NC(=O)CNC(=O)[C@H](CO)NC(=O)[C@H](CCC(N)=O)NC(=O)[C@H](C)NC(=O)CNC1=O [α-hANP, α-human atrial natriuretic polypeptide] | little toxicity | does not cause anaphylaxis shock | does not stimulate production of antibodies |  | 
2 |  |  |  | NS(=O)(=O)c1cc(C(=O)O)c(NCc2ccco2)cc1Cl [Furosemide, furosemide] |  |  |  | 167 ± 28 | 8.6 ± 1.9
